Like-named read-outs stand apart in the source and are kept apart here.
Legend:
Format in all cases: biochemical
Cdc25A = target: T1, Cdc25A (Homo sapiens, UniProt P30304); experiment: Cdc25A phosphatase inhibition
T1 sequence (P30304 1-524): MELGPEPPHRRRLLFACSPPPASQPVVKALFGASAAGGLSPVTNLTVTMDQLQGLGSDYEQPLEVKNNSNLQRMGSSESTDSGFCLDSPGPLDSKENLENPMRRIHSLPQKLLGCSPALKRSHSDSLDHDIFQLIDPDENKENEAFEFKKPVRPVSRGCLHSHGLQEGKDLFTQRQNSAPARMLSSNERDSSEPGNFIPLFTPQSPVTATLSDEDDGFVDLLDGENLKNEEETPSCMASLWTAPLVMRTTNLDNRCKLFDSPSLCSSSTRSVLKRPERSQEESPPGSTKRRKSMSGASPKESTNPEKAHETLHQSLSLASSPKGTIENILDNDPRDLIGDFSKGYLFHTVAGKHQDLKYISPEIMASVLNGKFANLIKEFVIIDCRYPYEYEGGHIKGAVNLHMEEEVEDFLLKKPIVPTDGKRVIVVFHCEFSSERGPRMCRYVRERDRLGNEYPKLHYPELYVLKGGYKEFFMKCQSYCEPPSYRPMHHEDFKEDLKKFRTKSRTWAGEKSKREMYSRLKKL
From the text: Assay protocols for Cdc25A, 11βHSD1, 11βHSD2, and AChE are described in detain in the publication of Koch M A, Wittenberg L O, Basu S, Jeyaraj D A, Gourzoulidou E, Reinecke K, Odermatt A, Waldmann H (Proc. Natl. Acad. Sci. U.S.A. 2004 Nov. 30; 101(48):16721-6) and in Koch M A et al., Proc. Natl. Acad. Sci. U.S.A. 2005 Nov. 29; 102 (48):17272-7.

PTP1B = target: T2, PTP1B (Homo sapiens, UniProt P18031); experiment: PTP1B phosphatase inhibition, general phosphatase assay using para-nitrophenylphosphate; conditions: read-out: IC50 Target PTP1B
T2 sequence (P18031 1-435): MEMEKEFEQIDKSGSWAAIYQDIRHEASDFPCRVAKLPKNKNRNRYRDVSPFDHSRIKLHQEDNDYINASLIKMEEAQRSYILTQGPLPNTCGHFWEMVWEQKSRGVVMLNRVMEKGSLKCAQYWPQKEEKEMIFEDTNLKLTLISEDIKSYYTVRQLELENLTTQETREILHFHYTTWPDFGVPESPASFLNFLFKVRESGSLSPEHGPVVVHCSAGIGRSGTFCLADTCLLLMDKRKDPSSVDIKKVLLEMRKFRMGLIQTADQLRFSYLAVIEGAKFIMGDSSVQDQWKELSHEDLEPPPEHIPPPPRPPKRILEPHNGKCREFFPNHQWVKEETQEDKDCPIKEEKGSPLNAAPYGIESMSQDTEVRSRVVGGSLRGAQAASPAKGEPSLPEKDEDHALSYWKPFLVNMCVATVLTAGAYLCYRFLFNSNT
From the text: (§1) Assays protocols for the other enzymes mentioned herein (MtPTPA, PP1, VHR, PTP1B) are disclosed in Schweizer R A S, Atanasov, G A, Frey B M, and Odermatt A, Mol. Cell. Endocrinol. 2003, 212, 41-49 and Barratte, B., Meijer L., Galaktionov K. & Beach D, Anticancer Res. 1992, 12, 873-880. For determination of the phosphatase activity, a general phosphatase assay using para-nitrophenylphosphate was applied.

VHR = VHR (Homo sapiens, UniProt P51452); experiment: VHR phosphatase inhibition, general phosphatase assay using para-nitrophenylphosphate; conditions: read-out: IC50 Target VHR
Chain of VHR (P51452 whole entry, species assumed): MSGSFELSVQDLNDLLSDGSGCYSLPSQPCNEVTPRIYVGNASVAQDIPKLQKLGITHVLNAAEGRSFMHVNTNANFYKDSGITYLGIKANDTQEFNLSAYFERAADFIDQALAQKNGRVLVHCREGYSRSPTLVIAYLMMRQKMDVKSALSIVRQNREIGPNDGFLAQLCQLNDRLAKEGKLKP
From the text: as §1

Structure (SMILES)	IC50 (Cdc25A; read-out: IC50 Target Cdc25A)	IC50 (PTP1B)	IC50 (VHR)	IC50 (Cdc25A)
CC1(Cc2cccc(I)c2)C(=O)CC[C@@]2(C)C1CCC[C@@H]2O (stereo partly drawn) [Compound 398, (4aS,5S)-5-Hydroxy-1-(3-iodo-benzyl)-1,4a-dimethyl-octahydro-naphthalen-2-one]	10 to 50 µM	10 to 50 µM	10 to 50 µM	–
CC1C=CCC2CCC(=Cc3ccco3)C(=O)C12 (stereo not shown) [Compound 394, 2-Furan-2-ylmethylene-8-methyl-3,4,4a,5,8,8a-hexahydro-2H-naphthalen-1-one]	10 to 50 µM	< 10 µM	10 to 50 µM	–
CC1=C2CCC[C@H](O)[C@@]2(C)C/C(=C\c2ccc(C#CC(C)(C)O)cc2)C1=O [Compound 44, (3E,4aS,5S)-3-[4-(3-Hydroxy-3-methylbut-1-inyl)benzyliden]-4,4a,5,6,7,8-hexahydro-5-hydroxy-1,4a-dimethyl-naphthalen-2(3H)-one]	10 to 50 µM	10 to 50 µM	10 to 50 µM	–
CC1=C2CCC[C@H](O)[C@@]2(C)C/C(=C\c2ccoc2)C1=O [Compound 8, (3E,4aS,5S)-3-[(Furan-3-yl)methylen]-4,4a,5,6,7,8-hexahydro-5-hydroxy-1,4a-dimethylnaphthalen-2(3H)-one]	10 to 50 µM	10 to 50 µM	< 10 µM	–
CCCCC#Cc1ccc(/C=C2\C[C@@]3(C)C(=C(C)C2=O)CCC[C@@H]3O)cc1 [Compound 40, (3E,4aS,5S)-3-[4-(Hex-1-inyl)benzyliden]-4,4a,5,6,7,8-hexahydro-5-hydroxy-1,4a-dimethyl-naphthalen-2(3H)-one]	10 to 50 µM	10 to 50 µM	10 to 50 µM	–
CCCCC1(C)C(=O)CC[C@@]2(C)C1CCC[C@@H]2O (stereo partly drawn) [Compound 414, (4aS,5S)-1-Butyl-5-hydroxy-1,4a-dimethyl-1-octahydro-naphthalen-2-one]	10 to 50 µM	10 to 50 µM	–	–
CCCCCCCCCCCCCCC#Cc1ccccc1/C=C1\C[C@@]2(C)C(=CC1=O)CCC[C@@H]2O [Compound 332, (3E,4aS,5S)-3-[2-(Hexadec-1-inyl)benzyliden]-4,4a,5,6,7,8-hexahydro-5-hydroxy-4a-methylnaphthalen-2(3H)-one]	10 to 50 µM	–	–	–
CC1=C2CCCC(=O)[C@@]2(C)CC/C1=C1/C=CC(=O)O1 [Compound 401, (2E,4aS)-5-(1,4a-Dimethyl-5-oxo-4,4a,5,6,7,8-hexahydro-3H-naphthalen-2-ylidene)-5H-furan-2-one]	10 to 50 µM	–	10 to 50 µM	–
COCC#Cc1ccccc1/C=C1\C[C@@]2(C)C(=CC1=O)CCC[C@@H]2O [Compound 334, (3E,4aS,5S)-3-[2-(3-Methoxyprop-1-inyl)benzyliden]-4,4a,5,6,7,8-hexahydro-5-hydroxy-4a-methylnaphthalen-2(3H)-one]	10 to 50 µM	–	–	–
CCCCCCC#Cc1ccc(/C=C2\C[C@@]3(C)C(=C(C)C2=O)CCC[C@@H]3O)cc1 [Compound 91, (3E,4aS,5S)-3-[4-(Oct-1-inyl)benzyliden]-4,4a,5,6,7,8-hexahydro-5-hydroxy-1,4a-dimethylnaphthalen-2(3H)-one]	< 10 µM	–	–	–
CC1=C2CCC[C@H](O)[C@@]2(C)C/C(=C\c2ccc(C#CCCCc3ccccc3)cc2)C1=O [Compound 72, (3E,4aS,5S)-3-[4-(5-Phenylpent-1-inyl)benzyliden]-4,4a,5,6,7,8-hexahydro-5-hydroxy-1,4a-dimethylnaphthalen-2(3H)-one]	10 to 50 µM	–	–	–
CCCCCCC#Cc1ccccc1/C=C1\CCC2C(C)C(O)CC[C@]2(C)C1NC1CCCCC1 (stereo partly drawn) [Compound 323, (E,4aS)-6-[2-(Oct-1-inyl)benzyliden]-5-(cyclohexylamino)-decahydro-1,4a-dimethylnaphthalen-2-ol]	10 to 50 µM	–	–	–
CCOC(C#Cc1ccc(/C=C2\C[C@@]3(C)C(=C(C)C2=O)CCC[C@@H]3O)cc1)OCC [Compound 46, (3E,4aS,5S)-3-[4-(3,3-Diethoxyprop-1-inyl)benzyliden]-4,4a,5,6,7,8-hexahydro-5-hydroxy-1,4a-dimethylnaphthalen-2(3H)-on]	< 10 µM	10 to 50 µM	10 to 50 µM	–
C=CC[C@]12C(CCC[C@@H]1O)C(C)C(=O)/C(=C/c1cccc(C#CCOC)c1)[C@@H]2C (stereo partly drawn) [Compound 349, (E,4R,4aR,5S)-3-[3-(3-Methoxyprop-1-inyl)benzyliden]-4a-allyl-octahydro-5-hydroxy-1,4-dimethylnaphthalen-2(1H)-one]	10 to 50 µM	–	–	–
C[C@]12C/C(=C\c3ccc(C#CC4(O)CCCCC4)cc3)C(=O)C=C1CCC[C@@H]2O [Compound 138, (3E,4aS,5S)-3-{4-[2-(1-Hydroxycyclohexyl)ethinyl]benzyliden}-4,4a,5,6,7,8-hexahydro-5-hydroxy-4a-methylnaphthalen-2(3H)-one]	< 10 µM	–	10 to 50 µM	–
CC1C(=O)/C(=C/c2cccn2C)C[C@@]2(C)C1CCC[C@@H]2O (stereo partly drawn) [Compound 86, (E,4aS,5S)-Octahydro-5-hydroxy-1,4a-dimethyl-3-[(1-methyl-1H-pyrrol-2-yl)methylen]naphthalen-2(1H)-one]	10 to 50 µM	–	–	–
CC1=C2CCC[C@H](O)[C@@]2(C)C/C(=C\c2ccc(C#CCN(C)C)cc2)C1=O [Compound 51, (3E,4aS,5S)-3-{4-[3-(Dimethylamino)prop-1-inyl]benzyliden}-4,4a,5,6,7,8-hexahydro-5-hydroxy-1,4a-dimethylnaphthalen-2(3H)-one]	< 10 µM	10 to 50 µM	10 to 50 µM	–
CC1=C2CCCC3(OCCO3)C2(C)CC/C1=C1/C=CC(=O)O1 (stereo not shown) [Compound 415, (5E)-5-(5′,8a′-dimethyl-3′,4′,8′,8a′-tetrahydro-2′H-spiro[1,3-dioxolane-2,1′-naphthalen]-6′(7′H)-ylidene)furan-2(5H)-one]	10 to 50 µM	–	–	–
C=CC[C@@]12C(=CC(=O)/C(=C/c3ccccc3C#CCCCCCCCCCCCCCC)[C@@H]1C)CCC[C@@H]2O [Compound 326, (3E,4R,4aS,5S)-3-[2-(Hexadec-1-inyl)benzyliden]-4a-allyl-4,4a,5,6,7,8-hexahydro-5-hydroxy-4-methylnaphthalen-2(3H)on]	10 to 50 µM	–	–	–
C#CCCCCCC#Cc1ccc(/C=C2\C[C@@]3(C)C(=C(C)C2=O)CCC[C@@H]3O)cc1 [Compound 42, (3E,4aS,5S)-3-[4-(Nona-1,8-diinyl)benzyliden]-4,4a,5,6,7,8-hexahydro-5-hydroxy-1,4a-dimethyl-naphthalen-2(3H)-one]	< 10 µM	–	–	–
CC1=C2CCC[C@H](O)[C@@]2(C)C/C(=C\C=C\c2ccco2)C1=O [Compound 60, (3E,4aS,5S)-3-[(E)-3-(Furan-2-yl)allyliden]-4,4a,5,6,7,8-hexahydro-5-hydroxy-1,4a-dimethylnaphthalen-2(3H)-one]	10 to 50 µM	10 to 50 µM	10 to 50 µM	–
C=C(C)C#Cc1ccc(/C=C2\C[C@@]3(C)C(=C(C)C2=O)CCC[C@@H]3O)cc1 [Compound 71, (3E,4aS,5S)-3-[4-(3-Methylbut-3-en-1-inyl)benzyliden]-4,4a,5,6,7,8-hexahydro-5-hydroxy-1,4a-dimethylnaphthalen-2(3H)-on]	10 to 50 µM	–	–	–
C[C@]12C/C(=C\c3ccc(C#C[Si](C)(C)C)cc3)C(=O)C=C1CCC[C@@H]2O [Compound 137, (3E,4aS,5S)-3-{4-[2-(Trimethylsilyl)ethinyl]benzyliden}-4,4a,5,6,7,8-hexahydro-5-hydroxy-4a-methylnaphthalen-2(3H)-one]	–	–	10 to 50 µM	< 10 µM
CC1=C2CCC[C@H](O)[C@@]2(C)C/C(=C\c2ccc(C#CC(C)OC(C)(C)C)cc2)C1=O (stereo partly drawn) [Compound 38, (3E,4aS,5S)-3-[4-(3-tert-Butoxybut-1-inyl)benzyliden]-4,4a,5,6,7,8-hexahydro-5-hydroxy-1,4a-dimethylnaphthalen-2(3H)-one]	< 10 µM	10 to 50 µM	10 to 50 µM	–
